In US4814329A, “Antihyperlipoproteinemic 5-substituted sulfur-containing benzimidazole derivatives” (Richter Gedeon Vegyeszeti Gyar R.T., priority 1985, dated 1989):
pIC50: −log10 of the molar value. Where a name gives a salt, the structure may show the parent alone. Read-outs that look alike come from different tables or passages of the source.

Legend:
[1] = acute toxicity, oral, rats; set-up: species or system male and female rats; details: rat, in vivo, observed 14 days
Description: (§1) The acute toxicity of this compound was examined on male and female mice and rats by oral administration.

[2] = acute toxicity, oral, mice; set-up: species or system male and female mice; details: mouse, in vivo, observed 14 days
Description: as §1

[3] = tested on: rats with the cholesterol diet; test: in vivo test in rats with the cholesterol diet, 10 day treatments (Table 2); details: rat; for LDL + VLDL percentile change / Serum cholesterol percentile change / triglyceride percentile change / HDL cholesterol percentile change: 10 day treatment
Protocol: […] (Schurr, P. E.; Schultz, J. R., Day, D. E.; Atherosclerosis Drug Discovery Ed.: C. E. Day, Plenum, New York 215 (1976) and Acta Pharm. Hung., 49, 182. (1979) During this time the total cholesterol level of the serum increased with 200-250% compared to the normal level, while the amount of the HDL chloesterol diminished by 45-50%. Groups consisting of six animals were formed. […] Then after a 18 hour starving the animals were bled to death under etheric narcosis on the 8th day. The blood samples were centrifuged and the serum total cholesterol and the HDL cholesterol were determined by Backmann enzymatic test, while the triglyceride concentration of the serum was determined by Van Handel's method (J. Lab.: Clin. Med. 41, 486 (1953). The amount of the LDL+VLDL was measured by manganese precipitation turbidimetrically (Schurr, P. E., Schulz, J. R., Day, C. E.: Atherosclerosis Drug Discovery Ed.: C. E. Day, Plenum Press, New York 215 (1976). The antiaggreagtion activity was measured in vitro on human plasm being rich in thrombocytes by a Chrono-log aggregometer. The aggregation was induced by ADP, adrenaline, collagen and arachidonic acid. […]. The lipidperoxidation was induced by N-ethyl-alenicimide (Arzneimittel-Forschung 29, 981 (1979).
The affect of compound no. 0202479 to the rats with the
cholesterol diet in 10 day treatments

[4] = tested on: washed human thrombocyte suspension; test: inhibition of lipidperoxidation, thiobarbituric acidic method; assay type: cell-based; details: induced by N-ethyl-alenicimide, read-out: medium inhibiting concentration, lipidperoxidation
Protocol: Whistar hannover male rats weighing 140-160 g were fed for 7 days with a rat fodder supplemented with 1.5% of cholesterol, 0.5% of sodium cholate and 5% of solid fat. […] The blood samples were centrifuged and the serum total cholesterol and the HDL cholesterol were determined by Backmann enzymatic test, while the triglyceride concentration of the serum was determined by Van Handel's method (J. Lab.: Clin. Med. 41, 486 (1953). The amount of the LDL+VLDL was measured by manganese precipitation turbidimetrically (Schurr, P. E., Schulz, J. R., Day, C. E.: Atherosclerosis Drug Discovery Ed.: C. E. Day, Plenum Press, New York 215 (1976). The antiaggreagtion activity was measured in vitro on human plasm being rich in thrombocytes by a Chrono-log aggregometer. The aggregation was induced by ADP, adrenaline, collagen and arachidonic acid. […]

[5] = tested on: human plasm being rich in thrombocytes; test: in vitro antiaggregation activity (Chrono-log aggregometer; ADP, adrenaline, collagen, arachidonic acid); assay type: cell-based; details: for inhibition at 250 µM / inhibition at 500 µM / inhibition at 1000 µM: Homo sapiens
Description: Whistar hannover male rats weighing 140-160 g were fed for 7 days with a rat fodder supplemented with 1.5% of cholesterol, 0.5% of sodium cholate and 5% of solid fat. (Schurr, P. E.; Schultz, J. R., Day, D. E.; Atherosclerosis Drug Discovery Ed.: C. E. Day, Plenum, New York 215 (1976) and Acta Pharm. Hung., 49, 182. (1979) During this time the total cholesterol level of the serum increased with 200-250% compared to the normal level, while the amount of the HDL chloesterol diminished by 45-50%. Groups consisting of six animals were formed. The compounds of the invention were administered orally starting on the fourth day of the addition of the cholesterol fodder and it was continued by the end of the experiments, by the seventh day, in one or two doses. Then after a 18 hour starving the animals were bled to death under etheric narcosis on the 8th day. The blood samples were centrifuged and the serum total cholesterol and the HDL cholesterol were determined by Backmann enzymatic test, while the triglyceride concentration of the serum was determined by Van Handel's method (J. Lab.: Clin. Med. 41, 486 (1953). The amount of the LDL+VLDL was measured by manganese precipitation turbidimetrically (Schurr, P. E., Schulz, J. R., Day, C. E.: Atherosclerosis Drug Discovery Ed.: C. E. Day, Plenum Press, New York 215 (1976). The antiaggreagtion activity was measured in vitro on human plasm being rich in thrombocytes by a Chrono-log aggregometer. The aggregation was induced by ADP, adrenaline, collagen and arachidonic acid. The determination of the inhibition of the lipidperoxidation was carried out by thiobarbituric acidic method with the aid of washed human thrombocyte suspension. The lipidperoxidation was induced by N-ethyl-alenicimide (Arzneimittel-Forschung 29, 981 (1979).

[6] = ADP induced, read-out: Aggregation inhibition, ADP
[7] = adrenaline induced, read-out: Aggregation inhibition, Adrenaline
[8] = collagen induced, read-out: Aggregation inhibition, Collagene

C=CCSc1nc2ccc(Cc3ccccc3)cc2[nH]1 [compound 0202479, 5-Benzyl-2-(2-propenylthio)-benzimidazole hydrobromide, hydrochloride and base]
LD50 at 336 h [1]: > 2000 mg/kg | LD50 at 336 h [2]: 960 mg/kg | effectiveness, in words [3]: remarkably effective | LDL + VLDL percentile change ([3]; 10.0 mg/kg p.o.): -20.8 percentile change | Serum cholesterol percentile change ([3]; 10.0 mg/kg p.o.): -7.8 percentile change | triglyceride percentile change ([3]; 10.0 mg/kg p.o.): -3.1 percentile change | HDL cholesterol percentile change ([3]; 10.0 mg/kg p.o., * 0.01 P 0.05): +47.7 percentile change | HDL cholesterol percentile change ([3]; 30.0 mg/kg p.o.): +40.1 percentile change | Serum cholesterol percentile change ([3]; 30.0 mg/kg p.o., * 0.01 P 0.05): -41.5 percentile change | LDL + VLDL percentile change ([3]; 30.0 mg/kg p.o., ** P 0.01): -48.5 percentile change | triglyceride percentile change ([3]; 30.0 mg/kg p.o., ** P 0.01): -47.7 percentile change | Serum cholesterol percentile change ([3]; 100.0 mg/kg p.o.): -66.3 percentile change | HDL cholesterol percentile change ([3]; 100.0 mg/kg p.o., ** P 0.01): +56.1 percentile change | LDL + VLDL percentile change ([3]; 100.0 mg/kg p.o., ** P 0.01): -80.5 percentile change | triglyceride percentile change ([3]; 100.0 mg/kg p.o., ** P 0.01): -55.8 percentile change | pIC50 [4]: 4.62 | inhibition of aggregation caused by ADP and adrenaline, in words ([5]; ADP and adrenaline): inhibited by the compound-similarly to Clofibrate--in the second phase | inhibition at 250 µM ([5]; read-out: inhibition of aggregation induced by arachidonic acid): 100% | inhibition at 250 µM [5, 6]: 20% | inhibition at 500 µM [5, 6]: 59% | inhibition at 1000 µM [5, 6]: 66% | inhibition at 250 µM [5, 7]: 9% | inhibition at 500 µM [5, 7]: 16% | inhibition at 1000 µM [5, 7]: 73% | inhibition at 250 µM ([5]; arachidonic acid induced, read-out: Aggregation inhibition, Arachidonic acid): 100% | inhibition at 250 µM [5, 8]: 6% | inhibition at 500 µM [5, 8]: 16% | inhibition at 1000 µM [5, 8]: 39%
